“Also recorded” adds a separate entry of the source.
Columns and labels:
[1] = tested on: mice with atopic dermatitis outbreak (NC/Nga, mite antigen Biostir AD); test: Atopic dermatitis score with simultaneous mite antigen induction and test formulation application, Example 5; assay type: in vivo, mouse; settings: topical 5 times a week for 3 weeks, 12 mM week 1, 24 mM week 2 and thereafter (decamethonium bromide 12 mM, twice a week in last week), induction twice a week
Procedure: (§1) Induction with mite antigens (twice a week) and application of a test formulation (5 times a week) were simultaneously performed for 3 weeks to analyze the effect of suppressing induction of atopic dermatitis. A test formulation was used at 12 mM in week 1, and at 24 mM in week 2 and thereafter. […] A non treatment group (no induction, no application of test formulation) and solvent applied group (with induction, application of purified water) were prepared as controls.
(1) Antagonist and agonist: hexamethonium bromide, suxamethonium chloride (Maruishi Pharmaceutical), and decamethonium bromide (Tokyo Chemical Industry) were used to compare an antagonist and agonist of a nicotinic acetylcholine receptor. […] (3) Number of tertiary amino groups: Hexamethonium bromide has two tertiary amino groups within the molecule. This was compared to hexyltrimethylammonium bromide (Wako Pure Chemical; hereinafter, referred to as Hexyl-TAB) having one tertiary amino group within the molecule and an alkyl group with 6 carbons. (4) Carbon chain length: Hexamethonium bromide was compared with decamethonium bromide (number of carbons 10) which has a carbon chain length that is longer than hexamethonium bromide (number of carbons 6), and compared with tetramethylammonium bromide (Wako Pure Chemical; number of carbons: 1; hereinafter, referred to as TAB), hexyltrimethylammonium bromide (number of carbons: 6; hereinafter, referred to as Hexyl-TAB), and cetyltrimethylammonium bromide (Wako Pure Chemical; number of carbons: 16; hereinafter, referred to as Cetyl-TAB), which have one tertiary amino group within the molecule and a different carbon chain length in the alkyl group.

mast cells = test: Activity and migration of mast cells (toluidine blue stain of back skin), Example 2; assay type: in vivo, mouse; settings: severe area; saline group about 40%
From the text: Solifenacin succinate (Tokyo Chemical Industry), acridinium bromide (Wako Pure Chemical) and scopolamine hydrobromide trihydrate (Tokyo Chemical Industry) were used as an inhibitor of a muscarinic acetylcholine receptor. Tubocurarine chloride pentahydrate (Tokyo Chemical Industry), gallamintriethiodide (sigma-aldrich), hexamethonium bromide (sigma-aldrich), dextromethorphan hydrobromide monohydrate (Wako Pure Chemical), and α-bungarotoxin (alomone labs) were used as an inhibitor of a nicotinic acetylcholine receptor. Dimethyl sulfoxide (DMSO, Wako Pure Chemical) saline (Otsuka Pharmaceutical), and purified water were used as solvents.
The back skin of sampled atopic dermatitis model mice was immobilized with neutral formalin and embedded in paraffin. A 4 μm thick tissue segment was prepared therefrom, and mast cells were stained with toluidine blue stain. The stained tissue segment was captured with a microscope. […] The areas of only collagen fiber sites in the tissue segment images were measured (removing areas of the epidermal layer, mast cells, and muscle cells) and compared the mast cell count per unit area to the degree of degranulation.

[2] = tested on: skin of atopic dermatitis patients; test: Replica method for goose bump-like skin symptoms, Example 6; assay type: in vivo, human; settings: 12 mM applied to back part of the neck of atopic dermatitis patients; 5 to 10 minutes after application vs before
Procedure: Hexamethonium (12 mM) was applied to (back part of) the neck of atopic dermatitis patients to obtain replica images of skin before application and after 5 to 10 minutes from application. The replica images were collected by applying silicon resin (SILFLO) so as to cover the skin with outbreak of atopic dermatitis and peeling of the cured silicon from the skin after 5 minutes. Light was irradiated onto the collected replicas from one direction to compare and examine, and take pictures of, the unevenness of the skin surface.

[3] = tested on: atopic dermatitis model mice (NC/Nga, mite antigen Biostir AD); test: Therapeutic effect from oral administration, dermatitis scores, Example 8; assay type: in vivo, mouse; settings: 150 μL of 60 mM once a day, 5 times a week, total 10 times, day 10
Procedure: 10 week old NC/Nga mice (Charles River Laboratories Japan) were used as atopic dermatitis model animals. A mite antigen (Biostir AD, Wako Pure Chemical) was used to induce dermatitis. Model mice were prepared and scored according to the method described in the package insert of Biostir AD (same as Example 1).
As an inhibitor of a nicotinic acetylcholine receptor, hexamethonium bromide (hereinafter, hexamethonium; sigma-aldrich) was used. The inhibitor was dissolved in purified water and prepared to have a final concentration of 60 mM. Purified water (DW) was used as a negative control.
150 μL of a test formulation was orally administered to atopic dermatitis induced mice once a day, 5 times a week, for a total of 10 times. Dermatitis scores were evaluated after 0 and 10 days from administration. Mean change from day 0 was compared. Atopic dermatitis was induced with mite antigens only on Mondays every week to maintain the symptom.

[4] = tested on: atopic dermatitis model mice (NC/Nga, mite antigen Biostir AD); test: Evaluation of drug efficacy after inducing dermatitis (AD score, pictures of the back), Example 1; assay type: in vivo, mouse; settings: female NC/Nga mice, topical 12 mM, days 3 and 7
Procedure: 10 week old NC/Nga mice (Charles River Laboratories Japan) were used as atopic dermatitis model animals. A mite (Dermatophagoides farina) antigen, i.e., Biostir AD (Wako Pure Chemical), was used to induce dermatitis. Model mice were prepared by the following procedure.
1. The back of mice was shaved. A hair removal cream was used only for the first time. 2. To destroy the skin barrier, 150 μL of 4% SDS was applied and dried for 2 to 3 hours (this step was omitted for the first time). 3. To stimulate immunity, 100 mg of Biostir AD was applied to the back and the left and right auricles of the mice. 4. These steps were performed twice a week.
Scoring was performed according to the method described in the package insert of Biostir AD. Four endpoints were each evaluated as 0 to 3 points. The total score for the endpoints was used as the AD score. The following Table 1 summarizes the scores for each endpoint.
Acridinium bromide (Wako Pure Chemical) and scopolamine hydrobromide trihydrate (Tokyo Chemical Industry) were used as an inhibitor of a muscarinic acetylcholine receptor. Hexamethonium bromide (sigma-aldrich) and dextromethorphan hydrobromide monohydrate (Wako Pure Chemical) were used as an inhibitor of a nicotinic acetylcholine receptor. Dimethyl sulfoxide (DMSO, Wako Pure Chemical), saline (Otsuka Pharmaceutical), and purified water were used as solvents. […]

[5] = tested on: atopic dermatitis model mice (NC/Nga, mite antigen Biostir AD); test: Drug efficacy with dermatitis induction in parallel (AD score, pictures of the back), Example 3; assay type: in vivo, mouse; settings: male NC/Nga mice, topical 12 mM, days 3, 7, 11
Procedure: Atopic dermatitis model mice were prepared and scored in the same manner as Example 1. The same test formulations as those in Example 1 were used.
Male NC/Nga mice (Charles River Laboratories Japan) induced to have atopic dermatitis were used. A test formulation was applied to the back once a day, 5 days a week (Monday to Friday), for a total of 10 times. 100 μL of the test formulation was applied to the back, and 25 μL was applied to each of the left and right auricles. The back was shaved prior to administration on Monday and Thursday to evaluate dermatitis scores. Atopic dermatitis was then induced only on Mondays every week to maintain dermatitis. Mice were euthanized after 11 days from the initial administration, and then the skin tissue was sampled.

[6] = Toxicity observed during application, Example 5; assay type: in vivo, mouse; settings: topical application to NC/Nga mice, 12 mM week 1
Procedure: as §1, with “Mice (NC/Nga, 10 week old) were applied with a mite antigen (Biostir AD) twice a week for 4 weeks to prepare mice with atopic dermatitis outbreak as in Example 1. Induction” for “Induction”, “controls. Scoring was performed in the same manner as Example 1.” for “controls.”

| Molecule | atopic dermatitis score (mean change) relative to solvent administered group (DW) [1] | further results |
| --- | --- | --- |
| NCCCCCCN [HMDA, Hexamethylenediamine] | An effect of suppression was not found | – |
| CCCCCC[N+](C)(C)C.[Br-] [Hexyl-TAB, Hexyltrimethylammonium Bromide] | effect of suppressing atopic dermatitis, although slightly weaker than hexamethonium bromide; also recorded: effect of suppressing atopic dermatitis | – |
| COc1cc2c3cc1Oc1cc(ccc1O)C[C@@H]1c4c(cc(OC)c(O)c4Oc4ccc(cc4)C[C@@H]3N(C)CC2)CC[N+]1(C)C [tubocurarine, Tubocurarine chloride pentahydrate] | – | ratio of degranulated mast cells to all mast cells (mast cells): about 33% |
| C[N+](C)(C)CCCCCC[N+](C)(C)C.[Br-].[Br-] [hexamethonium bromide, Hexamethonium Bromide] | elevation in atopic dermatitis scores was suppressed | degree of protrusion of skin pores (replica images) [2]: degree of protrusion of skin pores has subsided to be less goose bump-like; improvement in dermatitis scores (mean change from day 0) [3]: Improvement in the dermatitis scores was observed; therapeutic effect (AD scores and ΔAD scores) [4]: relatively high therapeutic effect; therapeutic effect (AD scores and ΔAD scores) [5]: relative high therapeutic effect |
| C[N+](C)(C)CCCCCCCCCC[N+](C)(C)C [decamethonium bromide, Decamethonium Bromide] | reduce atopic dermatitis scores | toxicity [6]: strong toxicity; atopic dermatitis score (mean change) relative to solvent administered group (DW) ([1]; listed as Decamethonium bromide): action to exacerbate atopic dermatitis was confirmed |
| Tetramethylammonium Bromide [TAB] | effect of suppressing atopic dermatitis | – |
| CCCCCCCCCCCCCCCC[N+](C)(C)C.[Br-] [Cetyl-TAB, Cetyltrimethylammonium bromide] | exacerbating action | – |
| C[N+](C)(C)CCOC(=O)CCC(=O)OCC[N+](C)(C)C [Suxamethonium bromide, suxamethonium chloride] | reduce atopic dermatitis scores | – |
